Results published in US8501446B2 (Vertex Pharmaceuticals Incorporated, priority 2004, dated 2013).

Tests used:
[1] = biological target: T1, ROCK I (AA 6-553) (Homo sapiens, UniProt Q13464); assay: ROCK inhibition assay, standard coupled enzyme system ("Enzyme"); format: biochemical; conditions: enzyme-linked assay
T1 construct: ROCK I (AA 6-553)
Description: Compounds were screened for their ability to inhibit ROCK I (AA 6-553) activity using a standard coupled enzyme system (Fox et al. (1998) Protein Sci. 7, 2249). Reactions were carried out in a solution containing 100 mM HEPES (pH 7.5), 10 mM MgCl2, 25 mM NaCl, 2 mM DTT and 1.5% DMSO. Final substrate concentrations in the assay were 45 μM ATP (Sigma Chemicals, St Louis, Mo.) and 200 μM peptide (American Peptide, Sunnyvale, Calif.). Reactions were carried out at 30° C. and 45 nM ROCK L. Final concentrations of the components of the coupled enzyme system were 2.5 mM phosphoenolpyruvate, 350 μM NADH, 30 μg/ml pyruvate kinase and 10 μg/ml lactate dehydrogenase.

[2] = biological target: T2, full length Aurora-A (AA 1-403) (Homo sapiens, UniProt O14965); assay: Aurora-A inhibition assay, standard coupled enzyme system; format: biochemical; conditions: average Ki if more than one value determined
T2 construct: full length Aurora-A (AA 1-403)
T2 sequence (O14965 1-403): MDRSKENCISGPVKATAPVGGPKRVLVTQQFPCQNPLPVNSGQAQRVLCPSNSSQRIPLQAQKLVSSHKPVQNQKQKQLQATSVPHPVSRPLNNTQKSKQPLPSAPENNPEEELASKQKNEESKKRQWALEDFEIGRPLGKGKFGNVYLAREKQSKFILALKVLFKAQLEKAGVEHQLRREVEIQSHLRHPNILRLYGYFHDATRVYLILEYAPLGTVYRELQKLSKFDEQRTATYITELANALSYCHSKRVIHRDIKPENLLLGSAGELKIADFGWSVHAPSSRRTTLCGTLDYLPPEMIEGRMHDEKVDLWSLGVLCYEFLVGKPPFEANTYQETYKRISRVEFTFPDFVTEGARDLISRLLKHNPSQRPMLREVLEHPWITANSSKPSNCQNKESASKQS
Description: Compounds were screened for their ability to inhibit full length Aurora-A (AA 1-403) activity using a standard coupled enzyme system (Fox et al., Protein Sci. 7, pp. 2249 (1998)). Reactions were carried out in a solution containing 100 mM HEPES (pH 7.5), 10 mM MgCl2, 25 mM NaCl, 300 μM NADH, 1 mM DTT and 3% DMSO. Final substrate concentrations in the assay were 200 μM ATP (Sigma Chemicals, St Louis, Mo.) and 800 μM peptide (LRRASLG, American Peptide, Sunnyvale, Calif.). Reactions were carried out at 30° C. and 35 nM Aurora-A. Final concentrations of the components of the coupled enzyme system were 2.5 mM phosphoenolpyruvate, 200 μM NADH, 60 μg/ml pyruvate kinase and 20 μg/ml lactate dehydrogenase.
An assay stock buffer solution was prepared containing all of the reagents listed above with the exception of ATP and the test compound of interest. The assay stock buffer solution (60 μl) was incubated in a 96 well plate with 2 μl of the test compound of interest at final concentrations spanning 0.002 μM to 30 μM at 30° C. for 10 min. Typically, a 12 point titration was conducted by preparing serial dilutions (from 1 mM compound stocks) with DMSO of the test compounds in daughter plates. The reaction was initiated by the addition of 5 μl of ATP (final concentration 200 μM). Rates of reaction were obtained using a Molecular Devices Spectramax plate reader (Sunnyvale, Calif.) over 10 min at 30° C. The Ki values were determined from the rate data as a function of inhibitor concentration using computerized nonlinear regression (Prism 3.0, Graphpad Software, San Diego, Calif.). Aurora-C activity was screened in a similar manner using Aurora-C protein. Aurora-B activity was screened using a radioactive assay, such as described in Examples 1 and 2, but using Aurora-B protein.

T1 sequence (Q13464 6-553, species assumed): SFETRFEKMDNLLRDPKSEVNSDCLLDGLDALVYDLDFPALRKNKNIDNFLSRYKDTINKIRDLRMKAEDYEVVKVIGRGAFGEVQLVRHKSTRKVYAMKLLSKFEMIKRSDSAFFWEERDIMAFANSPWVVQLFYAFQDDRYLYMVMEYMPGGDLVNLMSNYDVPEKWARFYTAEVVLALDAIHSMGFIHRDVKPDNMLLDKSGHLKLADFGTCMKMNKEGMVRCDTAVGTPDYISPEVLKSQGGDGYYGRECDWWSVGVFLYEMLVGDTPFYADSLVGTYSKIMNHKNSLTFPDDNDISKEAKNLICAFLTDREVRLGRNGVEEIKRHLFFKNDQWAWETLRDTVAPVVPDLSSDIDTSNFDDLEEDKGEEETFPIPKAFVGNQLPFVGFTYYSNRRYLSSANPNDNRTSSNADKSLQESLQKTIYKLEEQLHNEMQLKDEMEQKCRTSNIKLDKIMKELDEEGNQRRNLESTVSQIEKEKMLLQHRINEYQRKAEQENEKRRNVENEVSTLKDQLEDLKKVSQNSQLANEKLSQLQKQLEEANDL

Ki [1] | Ki [2] | SMILES
< 500 nM | < 500 nM | CC(=O)c1ccc(-c2c[nH]c3ncc(-c4ccccc4)cc23)cc1 [Compound 231]
500 to 5000 nM | 500 to 5000 nM | O=C(c1cccc(-c2c[nH]c3ncc(-c4cc(Cl)cc(Cl)c4)cc23)c1)N1CCOCC1 [Compound 225]
< 500 nM | < 500 nM | CN(C)c1cccc(-c2c[nH]c3ncc(-c4ccccc4)cc23)n1 [Compound 253]
500 to 5000 nM | 500 to 5000 nM | CCCCNC(=O)c1cccc(-c2c[nH]c3ncc(-c4ccccc4)cc23)c1 [Compound 220]
500 to 5000 nM | 500 to 5000 nM | Nc1cccc(-c2c[nH]c3ncc(Cl)cc23)n1 [Compound 246]
 | 500 to 5000 nM | CC(C)CCNC(=O)[C@H](C)Nc1nc(-c2c[nH]c3ncc(Cl)cc23)ncc1F [Compound 464]
 | < 500 nM | C#Cc1cc(-c2c[nH]c3ncc(Cl)cc23)nc(N2CCNCC2)c1 [Compound 412]
< 500 nM |  | NC(=O)c1ccc(-c2c[nH]c3ncc(CCc4ccccc4)cc23)cc1 [Compound 303]
< 500 nM | < 500 nM | NC(=O)c1cccc(-c2c[nH]c3ncc(-c4ccc(F)cc4)cc23)c1 [Compound 228]
500 to 5000 nM | < 500 nM | C[C@@H](Nc1nc(-c2c[nH]c3ncc(Cl)cc23)ncc1F)c1ccc(N)cc1 [Compound 313]
 | < 500 nM | NC(=O)c1ccc(-c2c[nH]c3ncc(-c4ccsc4)cc23)cc1 [Compound 236]
 | < 500 nM | O=C(Nc1cccc(-c2c[nH]c3ncc(Cl)cc23)n1)C1CCCCC1 [Compound 288]
500 to 5000 nM | < 500 nM | COc1ccc(CNc2cccc(-c3c[nH]c4ncc(Cl)cc34)n2)cc1OC [Compound 297]
500 to 5000 nM | 500 to 5000 nM | Cc1ccc(CNc2cccc(-c3c[nH]c4ncc(-c5ccccc5)cc34)n2)cc1 [Compound 262]
500 to 5000 nM | < 500 nM | CC(=O)N1CCN(c2cccc(-c3c[nH]c4ncc(Cl)cc34)n2)CC1 [Compound 276]
500 to 5000 nM | 500 to 5000 nM | C[C@H](Nc1nc(-c2c[nH]c3ncc(Cl)cc23)ncc1F)C(=O)NC1CCS(=O)(=O)C1 (stereo partly drawn) [Compound 390]
500 to 5000 nM | 500 to 5000 nM | CN(c1ccccc1)c1cccc(-c2c[nH]c3ncc(Cl)cc23)n1 [Compound 284]
< 500 nM | < 500 nM | NC(=O)c1ccc(-c2c[nH]c3ncc(-c4ccoc4)cc23)cc1 [Compound 235]
 | 500 to 5000 nM | C[Si](C)(C)c1[nH]c2ncc(-c3ccccc3)cc2c1-c1ccccc1 [Compound 210]
500 to 5000 nM | < 500 nM | C[C@H](Nc1nc(-c2c[nH]c3ncc(Cl)cc23)ncc1F)C(=O)N(C)C [Compound 337]

Ki [1] | Ki [2] | SMILES
500 to 5000 nM | < 500 nM | COC(=O)c1cc(F)c(N[C@@H](C)c2ccc(F)cc2)nc1-c1c[nH]c2ncc(Cl)cc12 [Compound 396]
500 to 5000 nM | 500 to 5000 nM | Clc1ccc(CNc2cccc(-c3c[nH]c4ncc(-c5ccccc5)cc34)n2)cc1Cl [Compound 261]
500 to 5000 nM | < 500 nM | CC(=O)N1CCC(CNc2nc(-c3c[nH]c4ncc(Cl)cc34)ncc2F)CC1 [Compound 383]
500 to 5000 nM | < 500 nM | Clc1cnc2[nH]cc(-c3cccc(NCCc4ccccc4)n3)c2c1 [Compound 264]
500 to 5000 nM | 500 to 5000 nM | Fc1cnc(-c2c[nH]c3ncc(Cl)cc23)nc1Nc1ccc(-n2ccnc2)cc1 [Compound 301]
 | 500 to 5000 nM | C[C@H](Nc1nc(-c2c[nH]c3ncc(Cl)cc23)ncc1F)C(=O)NCCC(=O)O [Compound 466]
500 to 5000 nM | < 500 nM | CN(C)CCCNc1cccc(-c2c[nH]c3ncc(Cl)cc23)n1 [Compound 271]
500 to 5000 nM | < 500 nM | CC(C)NC(=O)[C@H](C)Nc1nc(-c2c[nH]c3ncc(Cl)cc23)ncc1F [Compound 363]
 | 500 to 5000 nM | CNc1cccc(-c2c[nH]c3ncccc23)n1 [Compound 272]
 | 500 to 5000 nM | Clc1cnc2[nH]cc(-c3ncccn3)c2c1 [Compound 319]
 | 500 to 5000 nM | Fc1cnc(-c2c[nH]c3ncc(Cl)cc23)nc1OCc1ccc(Cl)cc1 [Compound 314]
 | 500 to 5000 nM | NCCC[C@H](Nc1nc(-c2c[nH]c3ncc(Cl)cc23)ncc1F)C(=O)O [Compound 403]
 | 500 to 5000 nM | C[C@H](Nc1nc(-c2c[nH]c3ncc(C(=O)N(C)C)cc23)ncc1F)c1ccc(F)cc1 [Compound 346]
 | < 500 nM | c1ccc(-c2cnc3[nH]cc(-c4cccc(NC5CCCCC5)n4)c3c2)cc1 [Compound 287]
 | < 500 nM | CN1CCC(Nc2nc(-c3c[nH]c4ncc(Cl)cc34)ncc2F)C1 (stereo not drawn) [Compound 352]
 | < 500 nM | C[C@H](Nc1nc(-c2c[nH]c3ncc(Cl)cc23)ncc1F)c1cccc(OCCN(C)C)c1 [Compound 320]
 | 500 to 5000 nM | Nc1cccc(-c2c[nH]c3ncc(-c4ccccc4)cc23)n1 [Compound 268]
500 to 5000 nM |  | NC(=O)c1ccc(-c2c[nH]c3ncc(Sc4ccccc4)cc23)cc1 [Compound 304]
 | 500 to 5000 nM | CCOC(=O)Nc1cnc2[nH]cc(-c3ncc(F)c(N[C@@H](C)c4ccc(F)cc4)n3)c2c1 [Compound 358]
 | < 500 nM | O=C(Nc1cccc(-c2c[nH]c3ncc(Cl)cc23)n1)c1cccc(Cl)c1 [Compound 282]

Ki [1] | Ki [2] | SMILES
500 to 5000 nM |  | CNS(=O)(=O)c1ccc(-c2c[nH]c3ncc(-c4ccccc4)cc23)cc1 [Compound 233]
 | < 500 nM | CC(C)NS(=O)(=O)CCNC(=O)[C@H](C)Nc1nc(-c2c[nH]c3ncc(Cl)cc23)ncc1F [Compound 469]
 | < 500 nM | C[C@H](Nc1nc(-c2c[nH]c3ncc(CO)cc23)ncc1F)c1ccc(F)cc1 [Compound 334]
 | < 500 nM | O=C(Nc1cccc(-c2c[nH]c3ncc(Cl)cc23)n1)c1ccccc1Cl [Compound 281]
 | 500 to 5000 nM | CCNC(=O)c1cccc(-c2c[nH]c3ncc(-c4cc(Cl)cc(Cl)c4)cc23)c1 [Compound 226]
 | < 500 nM | CNC(=O)CCNC(=O)[C@H](C)Nc1nc(-c2c[nH]c3ncc(Cl)cc23)ncc1F [Compound 467]
 | < 500 nM | CS(=O)(=O)Nc1ccc(-c2c[nH]c3ncc(-c4ccccc4)cc23)cc1 [Compound 234]
 | 500 to 5000 nM | CC(C)C(=O)Nc1cccc(-c2c[nH]c3ncc(Cl)cc23)n1 [Compound 279]
 | 500 to 5000 nM | Clc1cnc2[nH]cc(-c3cccc(N4CCCC4)n3)c2c1 [Compound 241]
 | < 500 nM | CC(C)NC(=O)CCNC(=O)[C@H](C)Nc1nc(-c2c[nH]c3ncc(Cl)cc23)ncc1F [Compound 468]
 | < 500 nM | c1ccc(CNc2cccc(-c3c[nH]c4ncc(-c5ccccc5)cc34)n2)cc1 [Compound 269]
 | 500 to 5000 nM | C[C@H](Nc1nc(-c2c[nH]c3ncc(C(=O)O)cc23)ncc1F)c1ccc(F)cc1 [Compound 350]
 | 500 to 5000 nM | CC(=O)Nc1cccc(-c2c[nH]c3ncc(Cl)cc23)n1 [Compound 283]
 | 500 to 5000 nM | C[C@H](Nc1nc(-c2c[nH]c3ncc(N)cc23)ncc1F)c1ccc(F)cc1 [Compound 343]
 | < 500 nM | OCc1cc(-c2c[nH]c3ncc(Cl)cc23)nc(N2CCNCC2)c1 [Compound 405]
500 to 5000 nM |  | N#Cc1ccnc(-c2c[nH]c3ncc(Cl)cc23)c1 [Compound 353]
 | < 500 nM | CC[C@H](C)NC(=O)[C@H](C)Nc1nc(-c2c[nH]c3ncc(Cl)cc23)ncc1F [Compound 465]
 | < 500 nM | O=C(Cc1ccccc1)Nc1cccc(-c2c[nH]c3ncc(Cl)cc23)n1 [Compound 280]
 | < 500 nM | Nc1nc(-c2c[nH]c3ncc(Cl)cc23)ncc1F [Compound 332]
 | < 500 nM | CC(C)(C)OC(=O)N(Cc1ccc(S(C)(=O)=O)cc1)c1cccc(-c2c[nH]c3ncc(Cl)cc23)n1 [Compound 245]
